In US20260144252A1, “BROMINE- OR IODINE-PARA-SUBSTITUTED [(1,5-DIPHENYL-1H-1,2,4-TRIAZOL-3-YL)OXY]ACETIC ACID DERIVATIVES AND THEIR SALTS, AGENTS FOR PROTECTING USEFUL PLANTS OR CROP PLANTS COMPRISING THEM, METHODS FOR PRODUCING THEM AND THEIR USE AS SAFENERS” (Bayer Aktiengesellschaft, priority 2022, published 2026):

Key:
Format in all cases: in vivo
[1] = test system: summer barley (HORVS, cv. Quench); experiment: Reduction of damage by mesosulfuron-methyl on summer barley (greenhouse, post-emergence safener test); parameters: key: 0: no reduction in damage (appearance corresponding to the herbicide control); 1: slight reduction in damage; 2: distinct reduction in damage; 3: significant reduction in damage; 4: complete reduction in damage (appearance corresponding to the untreated control); settings: safener 100 g/ha, mesosulfuron-methyl 40 g/ha, visual, 12-13 days after application
Description: (§1) The seeds of the crop plants to be treated were laid out in soil in plastic pots (diameter ˜4 cm), covered with soil and grown in a greenhouse under good conditions for germination and growth. The trial plants were treated at the early leaf stage (BBCH10-BBCH12). In the course of this, the inventive compounds of the general formula (I) formulated in the form of wettable powders (WP) were sprayed onto the above-ground parts of the plants as an aqueous suspension with a water application rate corresponding to 800 l/ha with addition of wetting agent (Mero, 0.2%) in the specified dose. This was followed by the application of the herbicide. For this purpose, mesosulfuron-methyl, formulated in the form of water-dispersible granules (WG), was sprayed onto the above-ground parts of the plants in the form of an aqueous dispersion with a water application rate corresponding to 800 l/ha with addition of wetting agent (Biopower, 1 l/ha) in a dose of 40 g/ha. The dose of the herbicide was chosen here such that it causes average, visually clearly apparent damage (50-60%) compared to untreated crop plants at the evaluation time on a control group of crop plants without safener treatment that were included in the same trial. After application, the plants were cultivated under good growth conditions in a greenhouse. 12-13 days after application, the efficacy of the test compounds was assessed visually. For this purpose, the appearance of the plants treated with the test compound and herbicide was compared to the corresponding herbicide controls (without safener; with clearly visible damage) and the untreated controls (without damage). The damage-reducing effect of the test compounds was expressed here separately for 2 repeats in graded efficacy codes according to the following scheme: • 0: no reduction in damage (appearance corresponding to the herbicide control) • 1: slight reduction in damage • 2: distinct reduction in damage • 3: significant reduction in damage • 4: complete reduction in damage (appearance corresponding to the untreated control)

[2] = test system: summer barley (HORVS; cv. Quench); experiment: Comparative herbicide/safener combination test, damage by mesosulfuron-methyl + iodosulfuron-methyl-sodium; settings: safener 20 g a.i./ha, damage without safener 50%
Description: (§2) The seeds of the crop plants to be treated were laid out in soil in wood fiber pots (diameter ˜7 cm), covered with soil and grown in a greenhouse under good conditions for germination and growth. The trial plants were treated at the early leaf stage (BBCH11-12). For this purpose, the herbicides and safeners used were formulated as wettable powders (WP), mixed in accordance with the dose specified in each case, and sprayed onto the above-ground parts of the plants as an aqueous suspension at a water application rate corresponding to 300 l/ha with addition of wetting agent (Biopower, 0.2%). The herbicidal effects were created using a mixture of mesosulfuron-methyl (40 g a.i./ha) and iodosulfuron-methyl-sodium (8 g a.i./ha). The total herbicide dose was chosen here such that it causes average, visually clearly apparent damage (min. 20%, max. 60%) compared to untreated crop plants at the evaluation time on a control group of crop plants without safener treatment that were included in the same trial. After application, the plants were cultivated under good growth conditions in a greenhouse. 20 days after application, the herbicide damage was assessed visually. The damage was assessed visually on a scale of 0-100% by comparison with untreated control plants, and averaged over 2 repeats per treatment.

[3] = test system: winter barley (HORVW; cv. Zzoom); experiment: as above; settings: safener 20 g a.i./ha, damage without safener 55%
Description: as §2

[4] = test system: durum wheat (TRZDU; cv. Joyau); experiment: as above; settings: safener 20 g a.i./ha, damage without safener 20%
Description: as §2

[5] = test system: summer wheat (TRZAS, cv. Triso); experiment: Reduction of damage by mesosulfuron-methyl on summer wheat (greenhouse, post-emergence safener test); parameters: key: 0: no reduction in damage (appearance corresponding to the herbicide control); 1: slight reduction in damage; 2: distinct reduction in damage; 3: significant reduction in damage; 4: complete reduction in damage (appearance corresponding to the untreated control); settings: mesosulfuron-methyl 40 g/ha, visual, 12-13 days after application
Description: as §1

[6] = mesosulfuron-methyl 40 + iodosulfuron-methyl-sodium 8 g a.i./ha, 20 days after application

| Structure (SMILES) | Efficacy of the safener [Efficacy Code] [1] | Reduction in damage by safener (difference) [2] | Reduction in damage by safener (in %) [2] | Damage to crop plant by herbicide treatment WITH SAFENER [2, 6] | Reduction in damage by safener (difference) [3] | Reduction in damage by safener (in %) [3] | Damage to crop plant by herbicide treatment WITH SAFENER [3, 6] | Reduction in damage by safener (difference) [4] | Reduction in damage by safener (in %) [4] | Damage to crop plant by herbicide treatment WITH SAFENER [4, 6] | Efficacy of the safener [Efficacy Code] ([5]; safener 100 g/ha) | Efficacy of the safener [Efficacy Code] ([5]; safener 500 g/ha) |
| --- | --- | --- | --- | --- | --- | --- | --- | --- | --- | --- | --- | --- |
| O=C(COc1nc(-c2ccc(F)cc2F)n(-c2ccc(Br)cc2F)n1)OCC1CCOC1 (centres unmarked) [I.63-1] | 2 |  |  |  |  |  |  |  |  |  |  |  |
| COCCOC(=O)COc1nc(-c2ccc(F)cc2F)n(-c2ccc(Br)cc2F)n1 [I.67-1] | 3 | 50 | 100% | 0% | 45 | 82% | 10% | 20 | 100% | 0% | 2 | 3 |
| COC(=O)CCOC(=O)COc1nc(-c2ccc(F)cc2F)n(-c2ccc(Br)cc2F)n1 [I.61-1] | 2 |  |  |  |  |  |  |  |  |  |  |  |
| CCOC(=O)COc1nc(-c2ccc(F)cc2F)n(-c2ccc(Br)cc2F)n1 [I.41-1] | 3 |  |  |  |  |  |  |  |  |  | 2 | 2 |
